Measured values published in PMC11695203, “A new peptide inhibitor of C1QBP exhibits potent anti‐tumour activity against triple negative breast cancer by impairing mitochondrial function and suppressing homologous recombination repair” (Clinical and Translational Medicine, 2025).

Experiments:
[1] = test system: MDA-MB-231 cells; experiment: CCK-8 assay, MDA-MB-231; format: cell-based, human; details: CCK-8, MDA-MB-231 and MDA-MB-468, co-treated 72 h / 24 h
Experimental: The cells were cultured at the corresponding cell densities in 96‐well plates. Following treatment with specific concentrations of reagents for designated durations, the CCK8 reagent was added to each well at a final ratio of 10% (v/v). After incubation for 2 h, the absorbance at 450 nm was measured using a microplate reader (H4, Synergy). For the Edu assay, logarithmic growth phase cells were inoculated into 96‐well plates at a density of 3 × 10^4 cells/mL. Subsequently, they were treated with specific concentrations of reagents for designated durations and then replaced with EdU medium containing a final concentration of 10 µmol/L. The cells were incubated for an additional period of 2 h. Following PBS washing and fixation with 4% paraformaldehyde for 30 min, Apollo staining reaction solution was added according to instructions and allowed to react for another 30 min. This was followed by addition of DAPI staining reaction solution for a duration of 10 min before washing again with PBS. Three randomly selected fields of vision from each group in each well were calculated and photographed under a fluorescence microscope. […] Three random fields of view were selected to quantify the number of cells that traversed through the microporous membrane.

[2] = test system: MDA-MB-231 xenograft; experiment: MDA-MB-231 tumour model in nude mice; format: in vivo, BALB/c nude mice; details: PJ34-HCL combination study, harvested tumours
Experimental: (§1) Four‐week‐old BALB/c nude mice (Charles River Laboratories, Beijing, China) were subcutaneously inoculated in the breast fat pad with 1 × 10^7 MDA‐MB‐231 cells. The treatment group received 10 mg/kg PDBAG1, while the control group was administered an equal volume of PBS. For preliminary experiment of immunocompetent mice, 4‐week‐old BALB/c mice (Charles River Laboratories) were subcutaneously inoculated in the mammary fat pad with 1 × 10^6 4T1 cells. The treatment group received 10 mg/kg PDBAG1, while the control group was administered an equal volume of PBS. For evaluating the PJ34‐HCL combination, 28 randomly assigned BALB/c nude mice were divided into respective treatment groups as follows: Group 1 served as a negative control and received PBS; Group 2 received intraperitoneal injections of 10 mg/kg PDBAG1 every 3 days; Group 3 received 1 mg/kg PJ34‐HCL every 3 days; Group 4 was treated with a combination of 10 mg/kg PDBAG1 and 1 mg/kg PJ34‐HCL every 3 days. Both PDBAG1 and PJ34‐HCL were dissolved in specific concentrations of normal saline and administered intraperitoneally. All mice were sacrificed 4 weeks after inoculation, and their subcutaneous xenografts were resected and weighed. Subsequently, formalin‐fixed subcutaneous tumours were processed into paraffin‐embedded sections for routine IHC analysis. […]

[3] = test system: C1QBP; details: cited from earlier work
Source text: C1QBP, targeted by PDBAG1, predominantly localises in the mitochondrial matrix and plays a crucial role in mitochondrial protein translation and function.[3] It represents a promising therapeutic target for various human cancers, including breast cancer. We observed significant overexpression of C1QBP in the TNBC subtype, which correlated with worse DFS. Based on our findings, we believe PDBAG1 primarily affects tumour cells, with minimal toxicity to normal cells. Although PDBAG1's precursor peptide is derived from normal adipose tissue, its impact on adipose metabolism is likely less pronounc ...

[4] = In vivo toxicity: body weight and HE staining of spleen, liver, kidney; details: PDBAG1 10 mg/kg, PJ34-HCL 1 mg/kg i.p. every 3 days
Experimental: as §1

[5] = test system: MDA-MB-231 and MDA-MB-468 cells; details: FITC-labelled PDBAG1 50 µM, 6 h, fluorescence microscopy
Experimental: The cells were seeded in a 24‐well plate, and FITC‐labelled PDBAG1 was added to the cell culture medium at a final concentration of 50 µM. After three washes with PBS, performed 6 h post peptide addition, the samples were fixed with 4% paraformaldehyde for 15 min and stained with DAPI (5 µg/mL) for 5 min. Following PBS washing, fluorescence microscopy was employed for observation.

[6] = test system: HEK-293T and MCF-10A cell lines; details: 30 μM, 24 hours
[7] = molecular target: T1, human C1QBP 74–282 (human, UniProt Q07021 74-282); experiment: ITC; PDBAG1 (500 µM) in the syringe into C1QBP 74–282 (17.0 µM) in the cell, 25°C, MicroCal VP ITC, no Zn2+, one set-of-sites model; buffer by the methods 20 mM HEPES pH 7.5, 600 mM NaCl, 1 mM EDTA, 1 mM EGTA, 5% glycerol, by the legend 20 mM potassium phosphate, 100 mM NaCl, pH 7.4; details: both partners purified
T1 construct: also called p32; source: vector a gift from Dr Adrian R. Krainer
T1 sequence (looked up): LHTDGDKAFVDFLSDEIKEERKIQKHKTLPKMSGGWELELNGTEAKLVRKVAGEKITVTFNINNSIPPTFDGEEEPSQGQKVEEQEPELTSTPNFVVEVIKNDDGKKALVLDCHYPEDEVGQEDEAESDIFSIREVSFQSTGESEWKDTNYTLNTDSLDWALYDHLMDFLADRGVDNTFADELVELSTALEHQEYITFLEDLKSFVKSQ

Molecule: CN(C)CC(=O)Nc1ccc2[nH]c(=O)c3ccccc3c2c1.Cl [PJ34‐HCL]
- Cell viability with PARP inhibitor, alone or combined with PDBAG1 [1]: exhibited significant effects
- C1QBP protein in tumour tissue (IHC, western blot) [2]: no substantial changes

Molecule: CGNKRTRGC [LyP‐1]
- Binding to C1QBP [3]: can bind to cell surface‐associated C1QBP

Molecule: Ac-GRKKRRQRRRPPQQASKKVCIVGSGNWGSAIA-NH2 [PDBAG1]
- Body weight during or after drug administration [4]: no significant differences
- HE staining of spleen, liver and kidney [4]: no notable deviations from normal structure and morphology
- Cell penetration [5]: potent cell‐penetrating properties
- Morphological alterations in non-tumour cells [6]: no obvious in morphological alterations

Molecule: CGKRK [tumour-specific vascular homing peptide]
- Binding to C1QBP [3]: can bind to cell surface‐associated C1QBP

B1: PDBAG1 (peptide derived from breast adipose tissue GPD1) (peptide)
peptide: GRKKRRQRRRPPQQASKKVCIVGSGNWGSAIA
notes: stretch of glycerol-3-phosphate dehydrogenase 1 (GPD1), found by peptidomics in benign breast adipose tissue of patients; also called peptide PDBAG1; source: synthetic peptide (Fmoc solid-phase synthesis, Shanghai Science Peptide Biological Technology Co)
- Kd [7]: 334 nM
